Like-named read-outs stand apart in the source and are kept apart here. Peptide text beside a SMILES is read from it. * marks the point of attachment. Cbz = O=C(OCc1ccccc1)*
Tests used:
[1] = molecular target: T1, β2c subunit of isolated human 20S proteasome (Homo sapiens, UniProt Q99436); assay: Proteasome inhibition assay (20 S Proteasome Assay Kit, Bz‐VGR‐AMC); assay type: biochemical; details: c = 1 µM, n=1; read-out: Inhibition cCP β2
T1 construct: purchased Enzo Life Sciences
Experimental: (§1) Proteasome inhibition assay. Bortezomib (Selleckchem) and carfilzomib (MedChemExpress) were purchased and used without further purification. The 20 S Proteasome Assay Kit for Drug Discovery was used according to the supplier's protocol using Suc‐LLVY‐AMC (β5), Bz‐VGR‐AMC (β2) or Z‐LLE‐AMC (β1) as substrates (Enzo Life Sciences). Single point measurements of residual activity of proteasome activity were performed at a final concentration of 100 nM (n=3, β5c, β5i) or 1 μM (n=1, β1c, β2c, β5c, β5i, SI chapter 2a, Table S1). […] Inhibitors were prepared in 2‐fold concentration (cfinal=100 nM) and added to proteasomes (mfinal=200 ng/well). After 30 min incubation, substrate was added (cfinal=100 μM), incubated for 60 minutes and fluorescence was read using a Tecan M1000 microplate reader. Dose‐response curves were fitted to the equation Y=100/(1+10^((L°^gIC50−X)*HillSl°^pe)) using GraphPad Prism 7.02. IC50 values were determined from technical duplicates as mean value of three independent experiments.

[2] = molecular target: T2, β5c subunit of isolated human 20S proteasome (Homo sapiens, UniProt P28074); assay: Proteasome inhibition assay (20 S Proteasome Assay Kit, Suc‐LLVY‐AMC); assay type: biochemical; details: for inhibition at 1 µM: read-out: Inhibition cCP β5; for inhibition at 0.1 µM: read-out: Rel. Inhibition β5c
T2 construct: purchased Enzo Life Sciences
Experimental: as §1, with “Bortezomib (Selleckchem) and carfilzomib (MedChemExpress) were purchased and used without further purification.” left out, “Dose‐response curves were fitted to the equation Y=100/(1+10^((L°^gIC50−X)*HillSl°^pe)) using GraphPad Prism 7.02.” left out

[3] = molecular target: T3, β5i subunit of isolated human 20S proteasome (Homo sapiens, UniProt P28062); assay: as above; assay type: biochemical; details: for inhibition at 1 µM: c = 1 µM, n=1, read-out: Inhibition iCP β5; for inhibition at 0.1 µM: c=100 nM, read-out: Rel. Inhibition β5i
T3 construct: purchased Enzo Life Sciences
Experimental: as §1, with “Bortezomib (Selleckchem) and carfilzomib (MedChemExpress) were purchased and used without further purification.” left out, “Dose‐response curves were fitted to the equation Y=100/(1+10^((L°^gIC50−X)*HillSl°^pe)) using GraphPad Prism 7.02.” left out

[4] = molecular target: T4, β1c subunit of isolated human 20S proteasome (Homo sapiens, UniProt P28072); assay: Proteasome inhibition assay (20 S Proteasome Assay Kit, Z‐LLE‐AMC); assay type: biochemical; details: read-out: Inhibition cCP β1
T4 construct: purchased Enzo Life Sciences
Experimental: as §1, with “Bortezomib (Selleckchem) and carfilzomib (MedChemExpress) were purchased and used without further purification.” left out, “Dose‐response curves were fitted to the equation Y=100/(1+10^((L°^gIC50−X)*HillSl°^pe)) using GraphPad Prism 7.02.” left out

[5] = tested on: MV4‐11 cells; assay: Cell viability endpoint assay (Celltiter Blue, 72 h); assay type: cell-based; details: Homo sapiens, MV4-11, mean±SD from two independent experiments
Experimental: Cell lines. MV4‐11 (ACC 102), Jurkat (ACC 282) and THP‐1 (ACC 16) cells were obtained from DSMZ and maintained at 37 °C and 5 % CO2 at densities between 0.2–1×10^6 cells per mL in RMPI‐1640 medium supplemented with 10 % FBS, L‐glutamine (2 mM) and penicillin/streptomycin.
Cell viability endpoint assay. For the determination of cytotoxicity of proteasome inhibitors 50.000 cells per well were plated in 90 μl RPMI‐1640 medium supplemented with 0.1 % FBS and incubated overnight at 37 °C and 5 % CO2. Inhibitors were serially diluted in RPMI‐1640 medium as 10‐fold stocks and added to cells giving the final concentration (1 nM to 10 μM, Figure S2–S4) and incubated for 72 h at 37 °C and 5 % CO2. Cell viability was determined using the Celltiter Blue assay (Promega) by adding 20 μl of reagent, incubation for 120 minutes at 37 °C and 5 % CO2 and fluorescent read‐out using a Tecan M1000 microplate reader. Dose‐response curves were fitted to the equation “Y=Bottom+(Top‐Bottom)/(1+10^(X−L°^gIC50))” using GraphPad Prism 7.02. IC50 values are determined from technical triplicates as mean value of two independent experiments. Standard deviations (Table S1) as well as dose response curves (SI chapter 2b) are given in the supplementary information.

Row | SMILES | inhibition at 1 µM [1] [%] | inhibition at 1 µM ([2]; c = 1 µM, n=1) [%] | inhibition at 0.1 µM ([2]; c=100 nM) [%] | inhibition at 1 µM [3] [%] | inhibition at 0.1 µM [3] [%] | inhibition at 1 µM ([4]; c = 1 µM, n=1) [%] | IC50 [5] [nM] | inhibition at 1 µM [2] [%] | inhibition at 0.1 µM [2] [%] | inhibition at 1 µM [4] [%]
1 | CC(C)C[C@@H](C=O)NC(=O)[C@H](CC(C)C)NC(=O)[C@H](CC(C)C)NC(=O)c1cc(Cl)ccc1Cl [Compound 24, 2,5‐Dichloro‐N‐((S)‐4‐methyl‐1‐(((S)‐4‐methyl‐1‐(((S)‐4‐methyl‐1‐oxopentan‐2‐yl)‐amino)‐1‐oxo‐pentan‐2‐yl)amino)‐1‐oxopentan‐2‐yl)benzamide] | 26 | 94 | 76 | 89 | 60 | 13 | 16 ± 1 |  |  | 
2 | Cc1ccc(NC(=O)C(=O)[C@H](CC(C)C)NC(=O)[C@H](CC(C)C)NC(=O)[C@H](CC(C)C)NC(=O)c2cc(Cl)ccc2Cl)c(C)c1 [Compound 26, 2,5‐Dichloro‐N‐((S)‐1‐(((S)‐1‐(((S)‐1‐((2,4‐dimethylphenyl)amino)‐5‐methyl‐1,2‐dioxohexan‐3‐yl)amino)‐4‐methyl‐1‐oxopentan‐2‐yl)amino)‐4‐methyl‐1‐oxopentan‐2‐yl)‐benzamide] | 17 | 51 | 25 | 24 | 4 | -38 | 25 ± 5 |  |  | 
3 | Cc1ccc(NC(=O)C(=O)[C@H](CC(C)C)NC(=O)[C@H](CC(=O)OC(C)(C)C)NC(=O)[C@H](CC(C)C)NC(=O)OCc2ccccc2)c(C)c1 [Compound 17, tert ‐Butyl‐(S)‐3‐((S)‐2‐(((benzyloxy)carbonyl)amino)‐4‐methylpentanamido)‐4‐(((S)‐1‐((2,4‐dime‐thylphenyl)amino)‐5‐methyl‐1,2‐dioxohexan‐3‐yl)amino)‐4‐oxobutanoate] | -10 | 88 | 43 | 69 | 36 | 11 | 46 ± 1 |  |  | 
4 | Cc1ccc(NC(=O)C(=O)[C@H](CC(C)C)NC(=O)[C@H](CC(=O)OC(C)(C)C)NC(=O)[C@H](CC(C)C)NC(=O)c2cc(Cl)ccc2Cl)c(C)c1 [Compound 28, tert ‐Butyl (S)‐3‐((S)‐2‐(2,5‐dichlorobenzamido)‐4‐methylpentanamido)‐4‐(((S)‐1‐((2,4‐dimethyl‐phenyl)amino)‐5‐methyl‐1,2‐dioxohexan‐3‐yl)amino)‐4‐oxobutanoate] | 6 | 81 | 26 | 52 | 35 | -10 | 47 ± 5 |  |  | 
5 | CC(C)C[C@@H](C=O)NC(=O)[C@H](CC(C)C)NC(=O)[C@H](CC(C)C)NC(=O)OCc1ccccc1 [Compound 4, MG132, reference compound] (Cbz-Leu-Leu-Leu-aldehyde) | 21 |  |  |  |  |  | 131 ± 12 | 82 | 43 | 27
6 | Cc1cc(C)c(Oc2ccccc2)cc1NC(=O)C(=O)[C@H](CC(C)C)NC(=O)[C@H](CC(=O)OC(C)(C)C)NC(=O)[C@H](CC(C)C)NC(=O)c1cc(Cl)ccc1Cl [Compound 29, tert ‐Butyl (S)‐3‐((S)‐2‐(2,5‐dichlorobenzamido)‐4‐methylpentanamido)‐4‐(((S)‐1‐((2,4‐dimethyl‐5‐phenoxyphenyl)amino)‐5‐methyl‐1,2‐dioxohexan‐3‐yl)amino)‐4‐oxobuta‐noate] | -4 | 53 | 26 | -1 | 8 | -19 | 58 ± 10 |  |  | 
7 | Cc1ccc(NC(=O)C(=O)[C@H](CC(C)C)NC(=O)[C@H](CC(C)C)NC(=O)[C@H](CC(C)C)NC(=O)OCc2ccccc2)c(C)c1Oc1ccccc1 [Compound 12, Benzyl((S)‐1‐(((S)‐1‐(((S)‐1‐((2,4‐dimethyl‐3‐phenoxyphenyl)amino)‐5‐methyl‐1,2‐dioxo‐hexan‐3‐yl)amino)‐4‐methyl‐1‐oxopentan‐2‐yl)amino)‐4‐methyl‐1‐oxopentan‐2‐yl)carbama‐te] | 4 | 53 | 20 | 16 | 9 | -33 | 26 ± 8 |  |  | 
8 | Cc1ccc(Oc2ccccc2)cc1NC(=O)C(=O)[C@H](CC(C)C)NC(=O)[C@H](CC(C)C)NC(=O)[C@H](CC(C)C)NC(=O)OCc1ccccc1 [Compound 15, Benzyl((S)‐4‐methyl‐1‐(((S)‐4‐methyl‐1‐(((S)‐5‐methyl‐1‐((2‐methyl‐5‐phenoxyphenyl)‐amino)‐1,2‐dioxohexan‐3‐yl)amino)‐1‐oxopentan‐2‐yl)amino)‐1‐oxopentan‐2‐yl)carbamate] | 9 | 75 | 26 | 48 | 19 | -2 | 16 ± 1 |  |  | 
9 | CC(C)C[C@H](NC(=O)OCc1ccccc1)C(=O)N[C@@H](CC(C)C)C(=O)N[C@@H](CC(C)C)C(=O)C(=O)Nc1ccc(Oc2ccccc2)cc1 [Compound 10, Benzyl‐((S)‐4‐methyl‐1‐(((S)‐4‐methyl‐1‐(((S)‐5‐methyl‐1,2‐dioxo‐1‐((4‐phenoxyphenyl)‐amino)hexan‐3‐yl)amino)‐1‐oxopentan‐2‐yl)amino)‐1‐oxopentan‐2‐yl)carbamate] | 2 | 63 | 25 | 23 | 5 | -3 | 45 ± 3 |  |  | 
10 | CC(C)C[C@H](NC(=O)OCc1ccccc1)C(=O)N[C@@H](CC(=O)OC(C)(C)C)C(=O)N[C@@H](CC(C)C)C(=O)C(=O)Nc1ccccc1Oc1ccccc1 [Compound 18, tert ‐Butyl‐(S)‐3‐((S)‐2‐(((benzyloxy)carbonyl)amino)‐4‐methylpentanamido)‐4‐(((S)‐5‐methyl‐1,2‐dioxo‐1‐((2‐phenoxyphenyl)amino)hexan‐3‐yl)amino)‐4‐oxobutanoate] | 2 | 59 | 28 | 7 | 18 | -12 | 76 ± 14 |  |  | 
11 | Cc1ccc(NC(=O)C(=O)[C@H](CC(C)C)NC(=O)[C@H](CC(C)C)NC(=O)[C@H](CC(C)C)NC(=O)OCc2ccccc2)cc1Oc1ccccc1 [Compound 13, Benzyl((S)‐4‐methyl‐1‐(((S)‐4‐methyl‐1‐(((S)‐5‐methyl‐1‐((4‐methyl‐3‐phenoxyphenyl)‐amino)‐1,2‐dioxohexan‐3‐yl)amino)‐1‐oxopentan‐2‐yl)amino)‐1‐oxopentan‐2‐yl)carbamate] | 4 | 69 | 49 | 15 | 28 | -4 | 23 ± 2 |  |  | 
12 | CC(C)C[C@H](NC(=O)OCc1ccccc1)C(=O)N[C@@H](CC(=O)OC(C)(C)C)C(=O)N[C@@H](CC(C)C)C(=O)C(=O)Nc1ccc(Oc2ccccc2)cc1 [Compound 20, tert ‐Butyl‐(S)‐3‐((S)‐2‐(((benzyloxy)carbonyl)amino)‐4‐methylpentanamido)‐4‐(((S)‐5‐methyl‐1,2‐dioxo‐1‐((4‐phenoxyphenyl)amino)hexan‐3‐yl)amino)‐4‐oxobutanoate] | -7 | 38 | 41 | 22 | 40 | -24 | 68 ± 9 |  |  | 
